According to patent US20200045956A1, “POLYPEPTIDE SPERM STABILISER FOR SEMEN USED IN ARTIFICIAL INSEMINATION” (UNIVERSIDAD DE LA FRONTERA, priority 2017, published 2020):

Tested on: porcine spermatozoa
Test: Progressive motility / viability of gametes incubated in fertilizing solution with FB-sp (CASA method, optical microscopy)
Type: cell-based
Experimental: A test of the progressive motility of gametes incubated in fertilizing solution added with the FB-sp bio-stabiliser polypeptide was performed. Progressive gametes are spermatozoa that have normal mobility capacity and are suitable for fertilizing.
It can be seen that the incubation of spermatozoa of porcine boars with FB-sp (●) (10 μM) preserves progressive motility up to 85% of spermatozoa for a period of 7 days, while the control (▪) without stabiliser decreases to a value of 70% on day 7, the difference increases over the days.

## RPGLPVFSPL (Spermatic biostabilizer FB-sp) [polypeptide sperm stabiliser of 10 amino acids: Arg, Pro, Gly, Leu, Pro, Val, Phe, Ser, Pro, Leu]
FB-sp 10 μM, 17° C., period of 7 days, porcine boar spermatozoa
  progressive motility of spermatozoa preserved: up to 85%
Extender with FB-sp added, after 7 days
  survival: over 65%
